Laboratory results reported in patent publication US20240124483A1, “Methods for the Treatment of Fibrotic Disease” (SHY Therapeutics, LLC, priority 2021, published 2024).

Tests used:
MAPK p38 = MAPK p38 Activation Assay in C2C12 (western blot); format: cell-based, mouse; design: key: Y = yes; N = No; details: at 10 μM
Procedure: Cell lines: Human tumor-derived pancreatic cancer cell line Panc-1 and mouse muscle myoblast C2C12 were purchased from American Type Culture Collection and grown in complete DMEM-High Glucose, supplemented with penicillin (100 U/mL), streptomycin (100 μg/mL), and 10% heat-inactivated FBS at 37° C. in a humidified incubator with 5% CO2.
Method: Cells were plated at 350000 cells/well density in a 12-well plate, allowed 3 hours to adhere to the plate, then starved in the appropriate medium in the presence of 0.5% FBS overnight. The small molecules to be tested were added to the cells in the final concentration of 10 μM in the presence of 0.3% DMSO for 3 hours incubation at 37° C. For IC50 value determination, serial dilutions of compounds were added to cells under the same conditions. […] Protein concentration was assessed by BCA protein assay (Thermo Scientific). Phosphorylation level of MAPK p38 was determined by western blot.
Western blot protocol: Equal amounts of protein (15-50 μg) were separated by SDS-PAGE and transferred to nitrocellulose membranes (Invitrogen by Thermo Fisher Scientific). […] Membranes were blocked with 10% milk and phosphorylation levels of Smad2/Smad3 were assessed by incubating overnight at 4° C. with the following antibody: Phospho-p38 MAPK (Thr180/Tyr182), from Cell Signaling Technology. […]

Smad2 phosphorylation = experiment: Phospho-Smad2 analysis of muscle tissue in the D2-mdx mouse model (western blot, densitometry); format: in vivo
Excerpt: The experiment described herein was designed to monitor the effects of Compound 9 on two biomarkers related to fibrosis in D2-mdx mice. The first biomarker is Smad2 phosphorylation, and the second is the levels of serum albumin in the different muscle tissues. Fibrosis causes disruption of the fine transparent tubular sheath which envelops the fibers of skeletal muscles, this can result in various molecules from the blood and interstitial fluid leaking into myofibres. A classic example is serum albumin, which can be identified in tissue sections and considered to be hallmark of myofibre permeability.
Experimental Design: Compound 9 was suspended in 0.5% Hydroxypropyl Methylcellulose (HPMC)/0.1% Tween® 80 to a final concentration of 10 mg/mL. The dosing solutions were prepared prior to the start of the test and were stored in the dark and maintained in frozen aliquots. Doses were thawed prior to administration. Male D2-mdx (JAX Stock No: 013141) mice were sourced from The Jackson Laboratory and housed in solid bottom cages with standard chow and water ad libitum. Dosing was initiated when animals were ˜3 weeks old. Animals were dosed daily by intraperitoneal (IP) injection at 100 mg/kg or vehicle for 3 days. […] Mice were sacrificed by CO2 euthanasia approximately 6 hours after their day 3 dosing. Heart, diaphragm, quadriceps, tibialis anterior (TA) samples were collected at termination on day 3 and snap frozen. These samples were shipped on dry ice for analysis, and were stored at −80° C.
Tissue protein extraction: Frozen tissues were placed on ice in prechilled tubes with 30 μL/mg with of ice-cold RIPA buffer+Halt™ Protease & Phosphatase Inhibitor Cocktail. Tissue was homogenized with a manual tissue homogenizer then centrifuged at 14,000 RPM at 4° C. for 15 min. Supernatant was removed and protein concentration determined by BCA assay.
Western blot protocol: Equal amounts of protein (15-50 μg) were separated by SDS-PAGE and transferred to nitrocellulose membranes (Invitrogen by Thermo Fisher Scientific). The membrane was stained with Ponceau S Stain (Boston BioProducts) to verify uniform protein loading. Membranes were blocked with 10% milk and albumin levels were assessed by incubating overnight at 4° C. with albumin antibody (Cell Signaling Technology #4929). Then the membranes were incubated with HRP-conjugated secondary antibody (Jackson Immunoresearch, West Grove, PA). Bands were incubated in Amersham ECL Prime Western Blotting Detection Reagent (GE Healthcare) and visualized using the ChemiDoc MP imaging system (Bio-Rad).
Western blot images for samples collected from heart (FIG. 2), diaphragm (FIG. 3), quadriceps (FIG. 4), and tibialis anterior (TA, FIG. 5) tissues following termination on day 3 were analyzed, providing the results summarized herein below (derived by densitometry).

[1] = D2-mdx mice, 100 mg/kg IP, 3 days
[2] = Ratio of Vehicle and Treated, 100 mg/kg IP, 3 days
[3] = Treated, 100 mg/kg IP daily for 3 days, D2-mdx mice, densitometry

Compound	Activation of MAPK p38 in C2C12 (MAPK p38)	Smad2 phosphorylation in the diaphragm compared to control vehicle mice (Smad2 phosphorylation; [1])	Smad2 phosphorylation in the heart (Smad2 phosphorylation; [1])	Phospho-Smad2, Diaphragm, Average, Ratio (Smad2 phosphorylation; [2])	Phospho-Smad2, Diaphragm, Median, Ratio (Smad2 phosphorylation; [2])	Phospho-Smad2, Quadriceps, Average, Ratio (Smad2 phosphorylation; [2])	Phospho-Smad2, Quadriceps, Median, Ratio (Smad2 phosphorylation; [2])	Phospho-Smad2, Diaphragm, Average (Smad2 phosphorylation; [3])	Phospho-Smad2, Diaphragm, Median (Smad2 phosphorylation; [3])	Phospho-Smad2, Quadriceps, Average (Smad2 phosphorylation; [3])	Phospho-Smad2, Quadriceps, Median (Smad2 phosphorylation; [3])
COCCNc1nc(-c2cn(C)cn2)nc2sc(-c3cccc(OC)c3Cl)c(-c3ccc(OC)cc3)c12 [Compound 8, 6-(2-Chloro-3-methoxyphenyl)-N-(2-methoxyethyl)-5-(4-methoxyphenyl)-2-(1-methyl-1H-imidazol-4-yl)thieno[2,3-d]pyrimidin-4-amine]	Y										
COCCNc1nc(-c2nccn2C)nc2sc(-c3cccc(OC)c3Cl)c(-c3ccccc3)c12 [Compound 9, 6-(2-Chloro-3-methoxyphenyl)-N-(2-methoxyethyl)-2-(1-methyl-1H-imidazol-2-yl)-5-phenylthieno[2,3-d]pyrimidin-4-amine]	Y	inhibition of Smad2 phosphorylation	No changes were detected	1.53	1.54	1.10	0.64	0.18 ± 0.06	0.19	0.22 ± 0.11	0.28
